Source: ChEMBL document CHEMBL1201862, “PubChem BioAssay data set” (2004)
Activity calls are given as the source filed them.

Tests used:
[1] = HEK-293T viability loss after treatment – luminescence, T-cell screen hits, cytotoxicity control for TCR NF-kB inhibitor project, dose response (AID 489026); type: functional, cell-based;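 note: cells exposed to compound about 14 hours before the viability readout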
[2] = biological target: T1, Short transient receptor potential channel 4 (Mus musculus, UniProt Q9QUQ5); experiment: calcium entry via TRPC4 opening agents – cell-based, HEK293 TRPC4/mu-opioid, Fluo-4 calcium, dose response (AID 434937); type: functional
T1 sequence (Q9QUQ5 whole entry): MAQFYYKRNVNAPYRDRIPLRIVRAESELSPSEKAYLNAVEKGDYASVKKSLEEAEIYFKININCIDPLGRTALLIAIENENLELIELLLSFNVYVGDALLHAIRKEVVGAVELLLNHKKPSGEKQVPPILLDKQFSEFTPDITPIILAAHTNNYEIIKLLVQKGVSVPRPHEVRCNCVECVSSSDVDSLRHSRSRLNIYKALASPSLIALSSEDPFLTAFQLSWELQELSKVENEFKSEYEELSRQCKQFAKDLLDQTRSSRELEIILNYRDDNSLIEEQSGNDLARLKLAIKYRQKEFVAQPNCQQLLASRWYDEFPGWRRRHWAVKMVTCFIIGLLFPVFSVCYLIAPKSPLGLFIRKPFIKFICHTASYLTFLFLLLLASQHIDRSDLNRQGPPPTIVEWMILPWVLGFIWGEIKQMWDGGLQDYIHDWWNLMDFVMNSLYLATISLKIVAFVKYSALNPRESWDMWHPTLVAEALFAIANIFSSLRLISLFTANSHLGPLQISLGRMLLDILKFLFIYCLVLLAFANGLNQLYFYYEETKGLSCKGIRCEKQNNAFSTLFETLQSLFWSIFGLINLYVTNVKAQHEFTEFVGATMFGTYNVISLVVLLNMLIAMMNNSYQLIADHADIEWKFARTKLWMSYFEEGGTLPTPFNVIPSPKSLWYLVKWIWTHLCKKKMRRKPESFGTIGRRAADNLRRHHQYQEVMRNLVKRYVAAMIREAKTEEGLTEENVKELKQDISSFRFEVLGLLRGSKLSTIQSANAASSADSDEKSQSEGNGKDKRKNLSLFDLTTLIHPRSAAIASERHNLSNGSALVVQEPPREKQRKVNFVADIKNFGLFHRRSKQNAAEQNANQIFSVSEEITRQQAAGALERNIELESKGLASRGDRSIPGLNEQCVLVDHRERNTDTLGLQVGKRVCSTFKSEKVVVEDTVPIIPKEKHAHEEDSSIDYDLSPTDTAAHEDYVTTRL

[3] = HEK-293T cell viability reduction – luminescence, B-cell screen hits, cytotoxicity control for BCR NF-kB inhibitor project, dose response (AID 489021); type: functional, cell-based;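 note: HEK-293T cells carrying an NF-kB luciferase reporter; cells exposed to compound for about 14 hours before viability readout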
Estrogen receptor = biological target: T2, Estrogen receptor (Homo sapiens, UniProt P03372);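 note: potency for inhibiting coactivator peptide recruitment to the receptor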
T2 sequence (P03372 whole entry): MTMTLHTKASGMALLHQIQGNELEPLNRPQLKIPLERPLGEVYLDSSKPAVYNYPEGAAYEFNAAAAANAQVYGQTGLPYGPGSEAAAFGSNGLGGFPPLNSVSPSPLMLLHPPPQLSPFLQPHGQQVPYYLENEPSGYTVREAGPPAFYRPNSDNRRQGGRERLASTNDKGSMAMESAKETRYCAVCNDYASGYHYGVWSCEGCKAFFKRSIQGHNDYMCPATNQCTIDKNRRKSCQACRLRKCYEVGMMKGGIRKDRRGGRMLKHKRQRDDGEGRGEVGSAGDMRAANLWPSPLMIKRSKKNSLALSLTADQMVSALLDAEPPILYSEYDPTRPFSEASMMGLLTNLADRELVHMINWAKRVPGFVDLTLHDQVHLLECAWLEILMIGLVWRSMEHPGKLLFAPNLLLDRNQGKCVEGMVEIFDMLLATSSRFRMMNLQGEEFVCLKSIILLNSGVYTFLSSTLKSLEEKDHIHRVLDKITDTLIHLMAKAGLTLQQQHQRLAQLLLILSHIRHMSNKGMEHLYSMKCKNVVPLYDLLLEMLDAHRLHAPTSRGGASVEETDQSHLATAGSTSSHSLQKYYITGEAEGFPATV

[4] = HPDE-C7 pancreatic duct cell viability loss – fluorescence, HTS (AID 430); type: functional, cell-based; conditions: Homo sapiens
[5] = viability loss of HPDE-C7K cells – cell-based, fluorescence, HTS, primary screen (AID 431); type: functional; conditions: Homo sapiens
[6] = A cytotoxicity screen of small molecule inhibitors of the PhoP region in Salmonella typhi identified in the primary screen. [Related pubchem assays: 1850, 1864, 1985 ]; type: functional
[7] = biological target: Voltage-dependent T-type calcium channel subunit alpha-1H (Homo sapiens, UniProt O95180); type: functional;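 note: channel activity triggered by adding a high calcium stimulation buffer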
[8] = biological target: Eukaryotic translation initiation factor 4E (Mus musculus, UniProt P63073); experiment: blockers of eIF4G binding by eIF4E – biochemical, TR-FRET, dose response (AID 855); type: functional;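 note: potency for disrupting eIF4E binding to eIF4GI seen as loss of FRET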
Eukaryotic translation initiation factor 4E, sequence (P63073 whole entry): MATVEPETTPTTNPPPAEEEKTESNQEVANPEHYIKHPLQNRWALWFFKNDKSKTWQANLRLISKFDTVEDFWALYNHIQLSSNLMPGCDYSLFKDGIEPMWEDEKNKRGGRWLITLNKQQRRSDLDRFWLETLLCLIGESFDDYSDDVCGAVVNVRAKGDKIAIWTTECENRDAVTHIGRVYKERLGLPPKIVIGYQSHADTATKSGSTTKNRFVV

Voltage-dependent T-type calcium channel subunit alpha-1H, sequence (O95180 whole entry): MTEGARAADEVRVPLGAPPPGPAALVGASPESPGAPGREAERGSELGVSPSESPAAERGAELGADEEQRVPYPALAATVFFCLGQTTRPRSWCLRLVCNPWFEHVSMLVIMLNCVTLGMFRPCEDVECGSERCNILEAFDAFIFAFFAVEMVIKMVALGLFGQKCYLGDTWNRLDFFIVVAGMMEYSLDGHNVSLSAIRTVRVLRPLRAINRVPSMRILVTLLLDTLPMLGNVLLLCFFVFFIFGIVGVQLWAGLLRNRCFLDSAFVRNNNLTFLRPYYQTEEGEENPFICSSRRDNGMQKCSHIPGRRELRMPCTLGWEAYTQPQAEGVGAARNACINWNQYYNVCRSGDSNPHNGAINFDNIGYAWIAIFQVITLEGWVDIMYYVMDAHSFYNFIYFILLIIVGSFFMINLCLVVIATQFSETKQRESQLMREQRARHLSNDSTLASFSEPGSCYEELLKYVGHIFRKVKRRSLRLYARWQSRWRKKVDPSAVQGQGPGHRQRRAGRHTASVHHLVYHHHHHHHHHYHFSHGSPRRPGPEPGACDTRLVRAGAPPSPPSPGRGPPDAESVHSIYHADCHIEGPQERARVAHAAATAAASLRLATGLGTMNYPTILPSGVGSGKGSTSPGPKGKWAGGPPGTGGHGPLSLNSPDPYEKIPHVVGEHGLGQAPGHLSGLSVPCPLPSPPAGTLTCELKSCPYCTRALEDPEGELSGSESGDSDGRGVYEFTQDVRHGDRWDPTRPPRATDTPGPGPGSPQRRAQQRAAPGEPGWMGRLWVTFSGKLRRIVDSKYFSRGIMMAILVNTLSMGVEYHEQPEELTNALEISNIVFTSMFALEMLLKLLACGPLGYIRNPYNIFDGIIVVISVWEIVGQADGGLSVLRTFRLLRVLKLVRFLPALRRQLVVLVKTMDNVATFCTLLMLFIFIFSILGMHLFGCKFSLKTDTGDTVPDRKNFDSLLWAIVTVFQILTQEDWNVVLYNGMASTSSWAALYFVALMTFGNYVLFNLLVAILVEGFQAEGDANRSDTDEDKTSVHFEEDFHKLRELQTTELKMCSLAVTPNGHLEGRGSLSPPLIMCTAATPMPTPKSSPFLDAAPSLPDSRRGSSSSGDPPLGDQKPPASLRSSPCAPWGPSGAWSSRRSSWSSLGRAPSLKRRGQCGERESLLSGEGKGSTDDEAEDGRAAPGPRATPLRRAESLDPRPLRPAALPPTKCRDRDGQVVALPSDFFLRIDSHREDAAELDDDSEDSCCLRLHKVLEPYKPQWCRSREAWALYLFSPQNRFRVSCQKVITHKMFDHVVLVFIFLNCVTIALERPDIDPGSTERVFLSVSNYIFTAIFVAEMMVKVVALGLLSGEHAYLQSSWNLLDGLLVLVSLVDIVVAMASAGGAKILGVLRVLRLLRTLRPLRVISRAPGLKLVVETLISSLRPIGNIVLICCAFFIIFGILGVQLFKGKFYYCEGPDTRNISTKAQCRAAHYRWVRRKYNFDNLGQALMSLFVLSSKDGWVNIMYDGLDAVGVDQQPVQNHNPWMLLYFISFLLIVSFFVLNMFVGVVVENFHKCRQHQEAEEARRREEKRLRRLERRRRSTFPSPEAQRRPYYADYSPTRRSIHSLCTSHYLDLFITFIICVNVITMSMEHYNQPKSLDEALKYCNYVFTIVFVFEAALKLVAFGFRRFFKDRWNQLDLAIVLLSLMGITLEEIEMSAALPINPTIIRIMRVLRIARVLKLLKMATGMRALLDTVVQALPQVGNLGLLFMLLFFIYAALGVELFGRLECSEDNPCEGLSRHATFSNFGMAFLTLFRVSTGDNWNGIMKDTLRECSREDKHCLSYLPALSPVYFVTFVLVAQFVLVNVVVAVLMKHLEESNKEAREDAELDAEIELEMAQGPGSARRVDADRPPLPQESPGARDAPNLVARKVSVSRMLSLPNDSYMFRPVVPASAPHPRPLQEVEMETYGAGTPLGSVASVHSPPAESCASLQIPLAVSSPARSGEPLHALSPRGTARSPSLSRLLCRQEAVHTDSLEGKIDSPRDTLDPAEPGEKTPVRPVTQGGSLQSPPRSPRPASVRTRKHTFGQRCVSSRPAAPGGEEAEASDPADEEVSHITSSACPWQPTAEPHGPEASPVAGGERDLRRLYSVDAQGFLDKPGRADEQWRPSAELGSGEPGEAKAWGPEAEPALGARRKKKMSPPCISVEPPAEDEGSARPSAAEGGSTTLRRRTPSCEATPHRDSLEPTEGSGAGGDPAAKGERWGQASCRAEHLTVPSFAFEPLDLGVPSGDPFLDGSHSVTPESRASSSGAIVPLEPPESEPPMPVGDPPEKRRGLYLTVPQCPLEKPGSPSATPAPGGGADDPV

SMILES: CCOC(=O)c1[nH]c(C)c(C(=O)Nc2cc(OC)ccc2OC)c1C
- IC50 [1]: > 80 µM (inactive)

SMILES: Cc1ccn(CC(=O)NC2CCCN(Cc3ccc(CC(C)C)cc3)C2)n1 (stereo not given)
- EC50 [2]: 1.68 µM (active)

SMILES: Cc1cc(-c2ccc(S(=O)(=O)N(C)c3ccc(C)c(C)c3)s2)on1
- IC50 [1]: > 80 µM (inactive)

SMILES: Cn1c(=O)cc(Nc2ccccc2)c2c(=O)n(-c3ccccc3)c(=O)n(-c3ccccc3)c21
- IC50 [3]: > 80 µM (inactive)

SMILES: COc1cc(C)c(S(=O)(=O)NCc2ccc3c(c2)OCO3)cc1C
- IC50 (Estrogen receptor): > 50 µM (not active)

SMILES: Cc1cc(NCc2ccccc2)nc(-c2ccccc2O)n1
- EC50 [4]: 19.2 µM (active)
- EC50 [5]: 10.3 µM (active)

SMILES: c1cnc2nc(-c3ccc4c(c3)OCO4)cn2c1
- EC50 [6]: > 50 µM (active)

SMILES: C=CCn1c(SC(C)C(=O)NCCC2=CCCCC2)nc2ccccc2c1=O (stereo not given)
- EC50 [7]: 3.01 µM (active)

SMILES: Cc1cc(CSc2ccccc2)ccc1NC(=O)c1cccc([N+](=O)[O-])c1
- IC50 [8]: > 64 µM (inactive)

SMILES: CSc1nccc(-c2nn(-c3ccc(C)cc3)ccc2=O)n1
- IC50 [1]: > 80 µM (inactive)

SMILES: CC(C)(C)n1nnnc1C(c1cccs1)N1CCCc2ccccc21 (stereo not given)
- EC50 [7]: 8.88 µM (active)

SMILES: O=C(OCn1nnc2ccccc2c1=O)c1cn(-c2ccccc2)nc1-c1cccnc1
- IC50 (Estrogen receptor): > 50 µM (not active)

SMILES: CCN1CCN(c2nc3ccccc3nc2C(C#N)S(=O)(=O)c2ccc(C)cc2)CC1 (stereo not given)
- EC50 [6]: > 50 µM (active)

SMILES: O=C(COc1ccc(Cl)cc1Cl)Nc1nc2n(n1)C(c1ccccc1)CC(=O)N2 (stereo not given)
- EC50 [7]: 1.98 µM (active)
